Experimental data taken from ChEMBL document CHEMBL3044945, “Synthesis of 1,3,5-trisubstituted pyrazoline nucleus containing compounds and screening for antimicrobial activity” (2012).
Values after ≈ are worked out from the molar mass of the structure shown.

How the values were obtained:
Assay type in all cases: functional
[1] = test system: Pseudomonas aeruginosa; test: Antibacterial activity against Pseudomonas aeruginosa MTCC 424 at 750 ug/ml after 48 hr by cup-plate method; details: MTCC 424, 48 h, read-out: DIZ
[2] = test system: Bacillus pumilus; test: Antibacterial activity against Bacillus pumilus MTCC 1456 after 24 to 48 hr by tube dilution method
[3] = test system: Penicillium chrysogenum; test: Antifungal activity against Penicillium chrysogenum MTCC 161 at 1250 ug/ml after 48 hr by cup-plate method; details: MTCC 161, 48 h, read-out: DIZ
[4] = test system: Bacillus pumilus; test: Antibacterial activity against Bacillus pumilus MTCC 1456 at 500 ug/ml after 48 hr by cup-plate method; details: MTCC 1456, 48 h, read-out: DIZ
[5] = test system: Penicillium chrysogenum; test: Antifungal activity against Penicillium chrysogenum MTCC 161 at 500 ug/ml after 48 hr by cup-plate method; details: MTCC 161, 48 h, read-out: DIZ
[6] = test system: Penicillium chrysogenum; test: Antifungal activity against Penicillium chrysogenum MTCC 161 at 100 ug/ml after 48 hr by cup-plate method; details: MTCC 161, 48 h, read-out: DIZ
[7] = test system: Bacillus subtilis; test: Antibacterial activity against Bacillus subtilis MTCC 441 at 750 ug/ml after 48 hr by cup-plate method; details: MTCC 441, 48 h, read-out: DIZ
[8] = test system: Escherichia coli; test: Antibacterial activity against Escherichia coli MTCC 1573 at 1000 ug/ml after 48 hr by cup-plate method; details: MTCC 1573, 48 h, read-out: DIZ
[9] = test system: Micrococcus luteus; test: Antibacterial activity against Micrococcus luteus MTCC 1538 at 750 ug/ml after 48 hr by cup-plate method; details: MTCC 1538, 48 h, read-out: DIZ
[10] = test system: Bacillus subtilis; test: Antibacterial activity against Bacillus subtilis MTCC 441 at 100 ug/ml after 48 hr by cup-plate method; details: MTCC 441, 48 h, read-out: DIZ
[11] = test system: Micrococcus luteus; test: Antibacterial activity against Micrococcus luteus MTCC 1538 after 24 to 48 hr by tube dilution method
[12] = test system: Micrococcus luteus; test: Antibacterial activity against Micrococcus luteus MTCC 1538 at 1000 ug/ml after 48 hr by cup-plate method; details: MTCC 1538, 48 h, read-out: DIZ
[13] = test system: Bacillus pumilus; test: Antibacterial activity against Bacillus pumilus MTCC 1456 at 1250 ug/ml after 48 hr by cup-plate method; details: MTCC 1456, 48 h, read-out: DIZ
[14] = test system: Aspergillus niger; test: Antifungal activity against Aspergillus niger MTCC 2546 at 1000 ug/ml after 48 hr by cup-plate method; details: MTCC 2546, 48 h, read-out: DIZ
[15] = test system: Pseudomonas aeruginosa; test: Antibacterial activity against Pseudomonas aeruginosa MTCC 424 after 24 to 48 hr by tube dilution method
[16] = test system: Penicillium chrysogenum; test: Antifungal activity against Penicillium chrysogenum MTCC 161 at 750 ug/ml after 48 hr by cup-plate method; details: MTCC 161, 48 h, read-out: DIZ
[17] = test system: Aspergillus niger; test: Antifungal activity against Aspergillus niger MTCC 2546 after 24 to 48 hr by tube dilution method
[18] = test system: Bacillus pumilus; test: Antibacterial activity against Bacillus pumilus MTCC 1456 at 750 ug/ml after 48 hr by cup-plate method; details: MTCC 1456, 48 h, read-out: DIZ
[19] = test system: Staphylococcus aureus; test: Antibacterial activity against Staphylococcus aureus MTCC 1430 at 250 ug/ml after 48 hr by cup-plate method; details: MTCC 1430, 48 h, read-out: DIZ
[20] = test system: Aspergillus niger; test: Antifungal activity against Aspergillus niger MTCC 2546 at 500 ug/ml after 48 hr by cup-plate method; details: MTCC 2546, 48 h, read-out: DIZ
[21] = test system: Penicillium chrysogenum; test: Antifungal activity against Penicillium chrysogenum MTCC 161 at 1000 ug/ml after 48 hr by cup-plate method; details: MTCC 161, 48 h, read-out: DIZ
[22] = test system: Pseudomonas fluorescens; test: Antibacterial activity against Pseudomonas fluorescens MTCC 2421 at 100 ug/ml after 48 hr by cup-plate method; details: MTCC 2421, 48 h, read-out: DIZ
[23] = test system: Staphylococcus aureus; test: Antibacterial activity against Staphylococcus aureus MTCC 1430 at 500 ug/ml after 48 hr by cup-plate method; details: MTCC 1430, 48 h, read-out: DIZ
[24] = test system: Staphylococcus aureus; test: Antibacterial activity against Staphylococcus aureus MTCC 1430 at 1000 ug/ml after 48 hr by cup-plate method; details: MTCC 1430, 48 h, read-out: DIZ
[25] = test system: Penicillium chrysogenum; test: Antifungal activity against Penicillium chrysogenum MTCC 161 at 250 ug/ml after 48 hr by cup-plate method; details: MTCC 161, 48 h, read-out: DIZ
[26] = test system: Staphylococcus aureus; test: Antibacterial activity against Staphylococcus aureus MTCC 1430 at 1250 ug/ml after 48 hr by cup-plate method; details: MTCC 1430, 48 h, read-out: DIZ
[27] = test system: Bacillus pumilus; test: Antibacterial activity against Bacillus pumilus MTCC 1456 at 250 ug/ml after 48 hr by cup-plate method; details: MTCC 1456, 48 h, read-out: DIZ
[28] = test system: Pseudomonas aeruginosa; test: Antibacterial activity against Pseudomonas aeruginosa MTCC 424 at 100 ug/ml after 48 hr by cup-plate method; details: MTCC 424, 48 h, read-out: DIZ
[29] = test system: Pseudomonas fluorescens; test: Antibacterial activity against Pseudomonas fluorescens MTCC 2421 at 750 ug/ml after 48 hr by cup-plate method; details: MTCC 2421, 48 h, read-out: DIZ

`NC(=O)N1N=C(c2cccc3ccccc23)CC1c1ccc([N+](=O)[O-])cc1` (centres undefined) gave a zone of inhibition at 750 µg/mL [1] of 12 mm, an MIC [2] of 50 µg/mL (≈ 139 µM) and a zone of inhibition at 1250 µg/mL [3] of 13 mm. The zone of inhibition at 500 µg/mL [4] was 9 mm, the zone of inhibition at 500 µg/mL [5] was 10 mm and the zone of inhibition at 100 µg/mL [6] was 8 mm. For the same compound, the zone of inhibition at 750 µg/mL [7] was 14 mm, the zone of inhibition at 1000 µg/mL [8] was 13 mm and the zone of inhibition at 750 µg/mL [9] was 9 mm. It also gave a zone of inhibition at 100 µg/mL [10] of 10 mm, an MIC [11] of 30 µg/mL (≈ 83.2 µM) and a zone of inhibition at 1000 µg/mL [12] of 10 mm. It also gave a zone of inhibition at 1250 µg/mL [13] of 12 mm, a zone of inhibition at 1000 µg/mL [14] of 17 mm and an MIC [15] of 200 µg/mL (≈ 555 µM). It also gave a zone of inhibition at 750 µg/mL [16] of 11 mm, an MIC [17] of 50 µg/mL (≈ 139 µM) and a zone of inhibition at 750 µg/mL [18] of 10 mm. It also gave a zone of inhibition at 250 µg/mL [19] of 9 mm, a zone of inhibition at 500 µg/mL [20] of 13 mm and a zone of inhibition at 1000 µg/mL [21] of 12 mm. The zone of inhibition at 100 µg/mL [22] was 8 mm, the zone of inhibition at 500 µg/mL [23] was 10 mm and the zone of inhibition at 1000 µg/mL [24] was 12 mm. It also gave a zone of inhibition at 250 µg/mL [25] of 9 mm, a zone of inhibition at 1250 µg/mL [26] of 14 mm and a zone of inhibition at 250 µg/mL [27] of 8 mm. For the same compound, the zone of inhibition at 100 µg/mL [28] was 9 mm and the zone of inhibition at 750 µg/mL [29] was 11 mm.
